How the values were obtained:
[1] = The drug is tested on Bifidobacterium longum subsp. Infantis strain: CCUG52486 for biotransformation. The drug concentrations were measured before and after a 12-h incubation by liquid-chromatography-coupled mass spectrometry (LC–MS); settings: 2 µM
[2] = The drug is tested on Bacteroides dorei strain: DSM17855 for biotransformation. The drug concentrations were measured before and after a 12-h incubation by liquid-chromatography-coupled mass spectrometry (LC–MS); settings: phocaeicola dorei, 2 µM
[3] = The drug is tested on Bacteroides fragilis strain: ATCC43859 for biotransformation. The drug concentrations were measured before and after a 12-h incubation by liquid-chromatography-coupled mass spectrometry (LC–MS); settings: 2 µM
[4] = The drug is tested on Bacteroides ovatus strain: ATCC8483 for biotransformation. The drug concentrations were measured before and after a 12-h incubation by liquid-chromatography-coupled mass spectrometry (LC–MS); settings: 2 µM
[5] = The drug is tested on Bacteroides pectinophilus strain: ATCC43243 for biotransformation. The drug concentrations were measured before and after a 12-h incubation by liquid-chromatography-coupled mass spectrometry (LC–MS); settings: 2 µM
[6] = The drug is tested on Parabacteroides merdae strain: ATCC43184 for biotransformation. The drug concentrations were measured before and after a 12-h incubation by liquid-chromatography-coupled mass spectrometry (LC–MS); settings: 2 µM
[7] = The drug is tested on Blautia hansenii strain: DSM20583 for biotransformation. The drug concentrations were measured before and after a 12-h incubation by liquid-chromatography-coupled mass spectrometry (LC–MS); settings: 2 µM
[8] = The drug is tested on Clostridium asparagiforme strain: DSM15981 for biotransformation. The drug concentrations were measured before and after a 12-h incubation by liquid-chromatography-coupled mass spectrometry (LC–MS); type: ADME; set-up: dose 2 uM, timepoint 0 vs 12 hours; settings: enterocloster asparagiformis, 2 µM
[9] = The drug is tested on Clostridium sp. strain: fecal isolate for biotransformation. The drug concentrations were measured before and after a 12-h incubation by liquid-chromatography-coupled mass spectrometry (LC–MS); settings: 2 µM
[10] = The drug is tested on Coprococcus comes strain: ATCC27758 for biotransformation. The drug concentrations were measured before and after a 12-h incubation by liquid-chromatography-coupled mass spectrometry (LC–MS); type: ADME; set-up: dose 2 uM, timepoint 0 vs 12 hours; settings: 2 µM
[11] = The drug is tested on Eubacterium hallii strain: DSM3353 for biotransformation. The drug concentrations were measured before and after a 12-h incubation by liquid-chromatography-coupled mass spectrometry (LC–MS); settings: anaerobutyricum hallii, 2 µM
[12] = The drug is tested on Eubacterium rectale strain: ATCC33656 for biotransformation. The drug concentrations were measured before and after a 12-h incubation by liquid-chromatography-coupled mass spectrometry (LC–MS); settings: agathobacter rectalis, 2 µM
[13] = The drug is tested on Eubacterium ventriosum strain: ATCC27560 for biotransformation. The drug concentrations were measured before and after a 12-h incubation by liquid-chromatography-coupled mass spectrometry (LC–MS); type: ADME; set-up: dose 2 uM, timepoint 0 vs 12 hours; settings: 2 µM
[14] = The drug is tested on Ruminococcus gnavus strain: ATCC29149 for biotransformation. The drug concentrations were measured before and after a 12-h incubation by liquid-chromatography-coupled mass spectrometry (LC–MS); settings: mediterraneibacter gnavus, 2 µM
[15] = The drug is tested on Ruminococcus lactaris strain: ATCC29176 for biotransformation. The drug concentrations were measured before and after a 12-h incubation by liquid-chromatography-coupled mass spectrometry (LC–MS); settings: 2 µM
[16] = The drug is tested on Escherichia coli strain: BW25113 for biotransformation. The drug concentrations were measured before and after a 12-h incubation by liquid-chromatography-coupled mass spectrometry (LC–MS); settings: 2 µM
[17] = bacteroides stercoris, 12 h, 2 µM
Description: The drug is tested on Bacteroides stercoris strain: ATCC43183 for biotransformation. The drug concentrations were measured before and after a 12-h incubation by liquid-chromatography-coupled mass spectrometry (LC–MS)

[18] = parabacteroides distasonis, 12 h, 2 µM
Description: The drug is tested on Parabacteroides distasonis strain: ATCC8503 for biotransformation. The drug concentrations were measured before and after a 12-h incubation by liquid-chromatography-coupled mass spectrometry (LC–MS)

[19] = enterocloster bolteae, 12 h, 2 µM
Description: The drug is tested on Clostridium bolteae strain: ATCCBAA-613 for biotransformation. The drug concentrations were measured before and after a 12-h incubation by liquid-chromatography-coupled mass spectrometry (LC–MS)

[20] = The drug is tested on Subdoligranulum variabile strain: DSM15176 for biotransformation. The drug concentrations were measured before and after a 12-h incubation by liquid-chromatography-coupled mass spectrometry (LC–MS); settings: 2 µM

Row | Structure (SMILES) | Bacterial Biotransformation [1] | Bacterial Biotransformation [2] | Bacterial Biotransformation [3] | Bacterial Biotransformation [4] | Bacterial Biotransformation [5] | Bacterial Biotransformation [6] | Bacterial Biotransformation [7] | Bacterial Biotransformation [8] | Bacterial Biotransformation [9] | Bacterial Biotransformation [10] | Bacterial Biotransformation [11] | Bacterial Biotransformation [12] | Bacterial Biotransformation [13] | Bacterial Biotransformation [14] | Bacterial Biotransformation [15] | Bacterial Biotransformation [16] | Bacterial Biotransformation [17] | Bacterial Biotransformation [18] | Bacterial Biotransformation [19] | Bacterial Biotransformation [20]
1 | CC(=O)OCC(=O)[C@@]1(OC(C)=O)[C@@H](C)C[C@H]2[C@@H]3C[C@H](F)C4=CC(=O)C=C[C@]4(C)[C@@]3(F)[C@@H](O)C[C@@]21C [DIFLORASONE DIACETATE] | Compound metabolized | Compound metabolized | Compound metabolized | Compound metabolized | Compound NOT metabolized | Compound metabolized | Compound metabolized | Compound metabolized | Compound metabolized | Compound NOT metabolized | Compound NOT metabolized | Compound NOT metabolized | Compound NOT metabolized | Compound NOT metabolized | Compound NOT metabolized | Compound metabolized | Compound metabolized | Compound metabolized | Compound metabolized | 
2 | COc1ccc([C@@H]2Sc3ccccc3N(CCN(C)C)C(=O)[C@@H]2OC(C)=O)cc1 [DILTIAZEM] | Compound metabolized | Compound metabolized | Compound NOT metabolized | Compound metabolized | Compound NOT metabolized | Compound metabolized | Compound metabolized | Compound NOT metabolized | Compound metabolized | Compound metabolized | Compound metabolized | Compound NOT metabolized | Compound NOT metabolized | Compound NOT metabolized | Compound metabolized | Compound NOT metabolized |  | Compound metabolized | Compound NOT metabolized | 
3 | CN(C)CC(c1ccc(O)cc1)C1(O)CCCCC1.O=C(O)CCC(=O)O (centres undefined) [DESVENLAFAXINE SUCCINATE] | Compound NOT metabolized | Compound NOT metabolized | Compound NOT metabolized | Compound NOT metabolized | Compound NOT metabolized | Compound NOT metabolized |  | Compound NOT metabolized | Compound NOT metabolized | Compound NOT metabolized | Compound NOT metabolized |  | Compound NOT metabolized | Compound NOT metabolized | Compound NOT metabolized | Compound NOT metabolized | Compound NOT metabolized | Compound NOT metabolized | Compound NOT metabolized | Compound NOT metabolized
4 | CNCC[C@H](Oc1cccc2ccccc12)c1cccs1 [DULOXETINE] | Compound NOT metabolized | Compound metabolized | Compound NOT metabolized | Compound metabolized | Compound NOT metabolized | Compound metabolized | Compound metabolized | Compound NOT metabolized | Compound metabolized |  |  | Compound NOT metabolized | Compound NOT metabolized | Compound NOT metabolized |  | Compound metabolized | Compound metabolized | Compound NOT metabolized | Compound NOT metabolized | 
5 | Fc1ccc([C@@H]2CCNC[C@H]2COc2ccc3c(c2)OCO3)cc1 [PAROXETINE] | Compound NOT metabolized |  | Compound NOT metabolized | Compound NOT metabolized | Compound metabolized | Compound NOT metabolized | Compound NOT metabolized | Compound NOT metabolized | Compound metabolized | Compound NOT metabolized | Compound NOT metabolized |  | Compound NOT metabolized | Compound NOT metabolized | Compound NOT metabolized | Compound NOT metabolized | Compound metabolized | Compound NOT metabolized | Compound metabolized | 
6 | N#Cc1ccc2c(c1)N(CCCN1CCC(O)CC1)c1ccccc1S2 [PERICIAZINE] | Compound NOT metabolized | Compound metabolized |  | Compound NOT metabolized | Compound NOT metabolized |  |  | Compound NOT metabolized |  | Compound NOT metabolized | Compound NOT metabolized | Compound NOT metabolized | Compound NOT metabolized | Compound NOT metabolized |  | Compound NOT metabolized | Compound NOT metabolized | Compound metabolized | Compound NOT metabolized | Compound NOT metabolized
7 | CN(C)CCOC(C)(c1ccccc1)c1ccccn1.O=C(O)CCC(=O)O (centres undefined) [DOXYLAMINE SUCCINATE] | Compound NOT metabolized | Compound NOT metabolized | Compound NOT metabolized | Compound NOT metabolized | Compound NOT metabolized | Compound NOT metabolized |  | Compound NOT metabolized |  | Compound NOT metabolized | Compound NOT metabolized |  | Compound NOT metabolized | Compound NOT metabolized | Compound NOT metabolized | Compound NOT metabolized | Compound NOT metabolized | Compound NOT metabolized | Compound NOT metabolized | Compound NOT metabolized
8 | CCC(C)n1ncn(-c2ccc(N3CCN(c4ccc(OCC5COC(Cn6cncn6)(c6ccc(Cl)cc6Cl)O5)cc4)CC3)cc2)c1=O (centres undefined) [ITRACONAZOLE] | Compound NOT metabolized | Compound NOT metabolized | Compound NOT metabolized | Compound NOT metabolized | Compound NOT metabolized | Compound NOT metabolized | Compound metabolized | Compound NOT metabolized | Compound metabolized | Compound NOT metabolized | Compound NOT metabolized | Compound NOT metabolized | Compound NOT metabolized | Compound NOT metabolized | Compound NOT metabolized | Compound NOT metabolized | Compound NOT metabolized | Compound NOT metabolized | Compound NOT metabolized | 

— ChEMBL document CHEMBL5303573, “Mapping human microbiome drug metabolism by gut bacteria and their genes” (Nature, 2019)
